Data from ChEMBL document CHEMBL6178013, “Ferroptosis of Cancer Cells via Tubulin Degradation and Mitochondrial Dysfunction: A Novel Mechanism of Anticancer Effect for Small-Molecule Anion Transporters” (J Med Chem, 2025).
The source made the active and inactive calls. The calls are words filed in the database; no cut-off is given here.

How the values were obtained:
[1] = MRT (0 to t) in male CD-1 mouse at 1 mg/kg, ip measured for 0.083 to 48 hrs by HPLC/MS/MS analysis; type: ADME, organism-based; details: in vivo, time 0.083-48 hrs
HeLa [2] = assay: Induction of cell cycle arrest in human HeLa cells assessed as accumulation of cells at S phase at 1 uM incubated for 24 hrs by PI staining based flow cytometry relative to control; type: functional
HeLa [3] = assay: Cytotoxicity against human HeLa cells assessed as decrease in cell viability at 0.01 to 10 uM pretreated with Z-VAD-FMK/Fer-1 followed by compound addition by MTT assay; type: functional, cell-based; details: dose 0.01-10 µM
HeLa [4] = assay: Cytotoxicity against human HeLa cells assessed as decrease in cell viability cultured in chloride-free extracellular medium at 0.05 to 5 uM incubated for 12 hrs; type: functional, cell-based; details: dose 0.05-5 µM
HeLa [5] = assay: Induction of ferroptosis in human HeLa cells assessed as increase in Bad level at 0.1 to 1 uM incubated for 24 hrs by immunoblotting analysis; type: functional, cell-based; details: dose 0.1-1 µM
HeLa [6] = assay: Induction of beta III-tubulin degradation in human HeLa cells up to 10 uM preincubated with MG132 followed by compound addition measured after 24 hrs by immunoblotting analysis; type: cell-based
HeLa [7] = assay: Cytotoxicity against human HeLa cells assessed as decrease in cell viability at 0.01 to 10 uM pretreated with DFO followed by compound addition by MTT assay; type: functional, cell-based; details: dose 0.01-10 µM
Chloride [8] = assay: Binding affinity to chloride anions in human HeLa cells assessed as decrease in red fluorescence in cytoplasm at 5 uM incubated for 1.5 hrs by MR-(RR)2 staining based analysis; type: cell-based
HeLa [9] = assay: Induction of mitochondrial membrane permeability in human HeLa cells assessed as red fluorescence at 0.1 uM incubated for 24 hrs by JC-1 staining based analysis (reference value: 98.5 %); type: functional
[10] = Toxicity in male Balb/C nude mouse xenografted with human HeLa cells assessed as body weight change at 20 mg/kg, ip administered on every 2 days measured after 18 days; type: organism-based; details: in vivo, 432 h, time 18 day
[11] = target: T1, Tubulin alpha (Homo sapiens) (UniProt P0DPH7+P68366+Q71U36+P68363+Q9BQE3+Q6PEY2+A6NHL2+Q9NY65); assay: Induction of alpha-tubulin degradation in human HeLa cells incubated for 48 hrs by immunoblotting analysis; type: cell-based; details: dose 0.1-1 µM
HeLa [12] = assay: Induction of lipid peroxidation in human HeLa cells assessed as increase in green fluorescence at 0.1 to 1 uM incubated for 24 hrs by C11-BODIPY-581/591 probe based analysis; type: functional, cell-based; details: dose 0.1-1 µM
HeLa [13] = assay: In vivo induction of ferroptosis in human HeLa cells xenografted in male Balb/C nude mouse assessed as increase in cleaved caspase-3 level administered intraperitoneally on every 2 days measured after 18 days by immunoblotting analysis; type: functional, organism-based; details: dose 10-20 mg/kg, route ip, time 18.0 day
Chloride [14] = assay: Binding affinity to chloride anions using tetrabutylammonium chloride salt assessed as association constant by 1H NMR spectroscopy
Chloride [15] = assay: Binding affinity to chloride anions in human HeLa cells assessed as decrease in orange fluorescence in cytoplasm at 5 uM incubated for 6 hrs by AO staining based analysis relative to control; type: cell-based; parameters: scale not given: the % may be the effect or the level left
HeLa [16] = assay: Induction of mitochondrial membrane permeability in human HeLa cells assessed as green fluorescence at 0.1 uM incubated for 24 hrs by JC-1 staining based analysis (reference value: 1.5 %); type: functional
Chloride [17] = assay: Binding affinity to chloride anions assessed as chloride efflux in egg-yolk L-alpha-phosphatidylcholine liposome model harboring intravesicular CsCl/extravesicular NaNO3
[18] = target: T1, Tubulin alpha (Homo sapiens); assay: Induction of alpha-tubulin degradation in human HeLa cells at 1 uM preincubated with MG132 followed by compound addition measured after 24 hrs by immunoblotting analysis; type: cell-based
[19] = Cmax in male CD-1 mouse at 1 mg/kg, iv measured for 0.083 to 48 hrs by HPLC/MS/MS analysis; type: ADME, organism-based; details: in vivo, time 0.083-48 hrs
HeLa [20] = assay: In vivo induction of ferroptosis in human HeLa cells xenografted in male Balb/C nude mouse assessed as increase in cleaved PARP level administered intraperitoneally on every 2 days measured after 18 days by immunoblotting analysis; type: functional, organism-based; details: dose 10-20 mg/kg, route ip, time 18.0 day
Chloride [21] = assay: Binding affinity to chloride anions assessed as chloride efflux in egg-yolk L-alpha-phosphatidylcholine liposome model harboring intravesicular NaCl/extravesicular NaNO3
HeLa [22] = assay: Antitumor activity against human HeLa cells xenografted in male Balb/C nude mouse assessed as average tumor size at 10 mg/kg, ip administered on every 2 days measured after 18 days (reference value: 1995.1 mm3); type: functional; details: time 18 day
HeLa [23] = assay: Induction of lipid peroxidation in human HeLa cells by flow cytometry; type: functional, cell-based; details: dose 0.1-1 µM
Liposome = assay: Disruption of egg-yolk L-alpha-phosphatidylcholine liposome model membrane assessed as calcein leakage by fluorescence based assay; type: subcellular
Chloride [24] = assay: Binding affinity to chloride anions in human HeLa cells assessed as increase in chloride influx at 1 uM measured after 30 to 60 mins by flow cytometry; type: cell-based; details: time 30-60 min
[25] = AUC (0 to t) in male CD-1 mouse at 1 mg/kg, ip measured for 0.083 to 48 hrs by HPLC/MS/MS analysis; type: ADME, organism-based; details: in vivo, time 0.083-48 hrs

Q: Which results are given for Fc1cc(-c2nc3c(C(F)(F)F)cc(C(F)(F)F)cc3[nH]2)cc(-c2nc3c(C(F)(F)F)cc(C(F)(F)F)cc3[nH]2)c1?
A: MRT last [1]: 24.9 h; Activity (HeLa [2]): 48%; Activity (HeLa [3]): Not active; Z-Vad-Fmk/Fer-1 Rescued Cells In Dose-Dependent Manner; Activity (HeLa [4]): inactive; Activity (HeLa [5]): Active; Activity (HeLa [6]): inactive; Activity (HeLa [7]): inactive; Activity (Chloride [8]): Active; The Result Reveals That Compound Can Alkalize Lysosomes; Activity (HeLa [9]): 90.5%; Activity [10]: Non-toxic; Activity [11]: Dose-dependent-effect; Activity (HeLa [12]): Active; Activity (HeLa [13]): Dose-dependent-effect; Ka (Chloride [14]): 1.48 10^3/M; Activity (Chloride [15]): 100%; Activity (HeLa [16]): 9.5%; Activity (Chloride [17]): Active; Activity [18]: inactive; Cmax [19]: 22.7 µg/mL; Activity (HeLa [20]): Dose-dependent-effect; Activity (Chloride [21]): Active; Activity (HeLa [22]): 850.9 mm3; Activity (HeLa [23]): Dose-dependent-effect; Activity (Liposome): inactive; Activity (Chloride [24]): Active; AUC(0-t) [25]: 3.85 µg·h/mL
